Entries after “also recorded” stand apart in the source; their conditions may differ. Structures can show the parent of a compound that is named as a salt.
What was measured:
[1] = tested on: CMV promoter; assay: CMV promoter-dependent luciferase gene expression (control); type: cell-based; conditions: FIG. 2B
Description: Luciferase gene reporter assay and Kinase assays of IKK: HeLa cells were transfected with the reporter plasmids described above using Lipofectin (GIBCO BRL). After 24-48 hr, the luciferase activity was determined using the Luciferase Assay System (Promega). The kinase activity of IKKα and IKKβ were analyzed by immune complex kinase assay as described previously (Oka, S., Kamata, H., Kamata, K., Yagisawa, H. and Hirata, H. (2000) FEBS Lett. 472, 196-202). The substrates was using GST-IκBα(1-55) or GST-p65(399-551).

[2] = target: T1, IκB kinase (IKK) (Homo sapiens, UniProt O14920+O15111); assay: IκB kinase activity in vitro; type: biochemical; conditions: FIG. 14, hydrochloride
T1 sequence (O15111 1-745): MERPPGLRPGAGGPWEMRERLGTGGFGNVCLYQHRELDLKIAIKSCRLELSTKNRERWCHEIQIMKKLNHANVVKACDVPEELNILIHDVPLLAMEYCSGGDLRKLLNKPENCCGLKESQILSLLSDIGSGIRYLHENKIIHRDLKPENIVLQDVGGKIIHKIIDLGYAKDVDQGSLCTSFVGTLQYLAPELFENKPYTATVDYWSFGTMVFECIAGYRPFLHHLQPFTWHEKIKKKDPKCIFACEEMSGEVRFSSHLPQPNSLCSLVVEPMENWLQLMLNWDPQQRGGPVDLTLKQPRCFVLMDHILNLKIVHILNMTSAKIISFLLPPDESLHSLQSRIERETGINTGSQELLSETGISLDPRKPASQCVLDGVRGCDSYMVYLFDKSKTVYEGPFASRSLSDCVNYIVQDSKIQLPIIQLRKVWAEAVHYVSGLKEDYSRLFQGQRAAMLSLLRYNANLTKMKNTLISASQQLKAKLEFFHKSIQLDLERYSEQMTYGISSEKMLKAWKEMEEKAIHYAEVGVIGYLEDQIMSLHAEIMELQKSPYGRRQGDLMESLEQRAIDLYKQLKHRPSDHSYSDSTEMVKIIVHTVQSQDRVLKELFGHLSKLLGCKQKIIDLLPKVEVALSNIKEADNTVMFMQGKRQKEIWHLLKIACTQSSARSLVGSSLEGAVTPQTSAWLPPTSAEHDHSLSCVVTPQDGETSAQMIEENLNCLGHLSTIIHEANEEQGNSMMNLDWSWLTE
T1 sequence (O14920 1-756): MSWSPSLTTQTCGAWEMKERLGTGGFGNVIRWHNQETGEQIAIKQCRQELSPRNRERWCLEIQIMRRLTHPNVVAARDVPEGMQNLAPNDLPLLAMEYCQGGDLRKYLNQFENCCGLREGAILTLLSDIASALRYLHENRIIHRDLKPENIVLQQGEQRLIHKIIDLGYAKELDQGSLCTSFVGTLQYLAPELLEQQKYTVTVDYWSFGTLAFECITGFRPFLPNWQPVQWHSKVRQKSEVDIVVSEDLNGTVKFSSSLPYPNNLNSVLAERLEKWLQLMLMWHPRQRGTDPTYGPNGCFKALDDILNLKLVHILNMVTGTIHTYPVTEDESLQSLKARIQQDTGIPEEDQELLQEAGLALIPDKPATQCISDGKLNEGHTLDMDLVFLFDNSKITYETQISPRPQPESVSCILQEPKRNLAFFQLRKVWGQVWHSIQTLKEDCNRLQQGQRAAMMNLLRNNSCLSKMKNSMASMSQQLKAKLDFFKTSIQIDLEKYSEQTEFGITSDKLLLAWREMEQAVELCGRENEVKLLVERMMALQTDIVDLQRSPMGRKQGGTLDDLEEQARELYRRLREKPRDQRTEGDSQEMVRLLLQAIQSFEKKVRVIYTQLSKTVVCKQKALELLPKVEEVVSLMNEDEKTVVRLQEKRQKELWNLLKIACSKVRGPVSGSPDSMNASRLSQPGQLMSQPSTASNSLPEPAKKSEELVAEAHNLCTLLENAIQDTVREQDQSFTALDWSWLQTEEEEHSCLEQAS
From the text: Accordingly, in order to identify the p65 kinase which cPrG-HCl suppressed, the effect of cPrG-HCl on PKA (FIG. 13), casein kinase II (CKII) (FIG. 12), and IκB kinase (IKK) (FIG. 14) was studied in vitro.

[3] = tested on: AP-1; assay: AP-1 luciferase reporter assay (pAPLuc) in HeLa cells; type: cell-based
Description: In the same manner as described in Experimental example 1, HeLa cells were transfected with the AP-1 reporter gene plasmid pAPLuc. After 20 hours, the cells were pretreated with cPrG-HCl (1 μM) for 1 hour and then stimulated with TNFα (20 ng/ml) or PMA (1 μg/ml) for 4 hours, after which, luciferase activity was measured. Each activity was corrected for the amount of protein.

[4] = tested on: NF-κB; assay: NF-κB luciferase reporter assay in U373, 293, COS7 and MKN45 cells; type: cell-based, human; African green monkey; conditions: all the cells tested: U373, 293, COS7, MKN45; FIGS. 6A to 6F
Description: (§1) In order to find out whether the suppression of NF-κB and AP-1 activation was specific to HeLa cells used above, analysis was made with various kind of cells. The cells used were U373 cells (human brain tumor cells), 293 cells (human embryo-derived kidney cells), COS7 cells (African green monkey kidney-derived cells), and MKN45 cells (human gastric tumor cells).
(§2) The NF-κB reporter plasmid pIG3Luc was incorporated into cells by transfection. After 24 hours, the cells were pretreated with cPrG-HCl at a specified concentration for 1 hour and then stimulated with TNFα (20 ng/ml) or PMA (1 μg/ml) for 4 hours, after which luciferase activity was measured. Each activity was corrected for the amount of protein.

[5] = tested on: AP-1; assay: AP-1 luciferase reporter assay in various kinds of cells; type: cell-based, human; African green monkey; conditions: all the cells tested: U373, 293, COS7, MKN45; FIGS. 6A to 6F
Description: as §1, §2

[6] = tested on: CRE binding factor; assay: CRE luciferase assay (pCRELuc) in COS-7 cells; type: cell-based, African green monkey; conditions: PMA 1 μg/ml 4 hours, FIG. 8
Description: Here in order to analyze the effect of cPrG-HCl on the CRE binding factor, luciferase assay was carried out using a reporter plasmid (pCRELuc) in which the luciferase gene is linked downstream of the CRE sequence.
The pCRELuc was transfected in COS-7 cells. After 24 hours, the cells were pretreated with cPrG-HCl at a specified concentration for 1 hour and further stimulated with phorbol ester myristate acetate PMA (1 μg/ml) for 4 hours, after which luciferase activity was measured.

[7] = tested on: NF-κB; conditions: earlier abstract of the inventors (Kamata et al., 2000); cited from earlier work

COC1=CC(c2ccc[nH]2)=N/C1=C\c1[nH]c(C)c2c1C(C)CCC2 (centres unmarked) [cPrG-HCl, Cycloprodigiosin hydrochloride]
expression of the CMV promoter-dependent luciferase gene [1]: did not inhibit | effect on IκB kinase (IKK) activity [2]: does not directly suppress; also recorded: no suppressive effect | AP-1 transcriptional activity ([3]; HeLa cells, 1 μM, TNFα (20 ng/ml) or PMA (1 μg/ml), FIG. 5): significantly suppressed | PMA-induced AP-1 transcriptional activation ([3]; in the presence of imidazole): suppressed | NF-κB transcriptional activation [4]: suppressed | AP-1 transcriptional activation [5]: suppressed | PMA-induced CRE-dependent transcriptional activity [6]: markedly suppressed | gene expression induction by NF-κB [7]: significantly suppressed

From patent US20040048791A1, “Method for treating neoplastic cells using cycloprodigiosin or salt thereof” (priority 2002, published 2004)
